Measurements taken from patent US20090275594A1, “3-HYDRAZONE PIPERAZINYL RIFAMYCIN DERIVATIVES USEFUL AS ANTIMICROBIAL AGENTS” (priority 2008, published 2009).
Converted amounts (≈) assume the structure as drawn.

Tests used:
Format in all cases: cell-based
Conditions in all cases: cation adjusted Mueller-Hinton broth, 35° C., 16-20 hours
[1] = system: Enterococcus faecium OC 3312 vancomycin-resistant; test: In vitro antibacterial activity, microdilution broth MIC (NCCLS M7-A4), strain A
Protocol: (§1) Minimum inhibitory concentration (MIC) is an indicator of in vitro antibacterial activity. […] The in vitro antimicrobial activity of representative compounds of the present invention was determined by the microdilution broth method following the test method from the National Committee for Clinical Laboratory Standards (NCCLS). This method is described in the NCCLS Document M7-A4, Vol. 17, No. 2, “Methods for Dilution Antimicrobial Susceptibility Test for Bacteria that Grow Aerobically—Fourth Edition”, which is incorporated herein by reference.
(§2) In this method two-fold serial dilutions of drug in cation adjusted Mueller-Hinton broth were added to wells in microdilution trays. The test organisms were prepared by adjusting the turbidity of actively growing broth cultures so that the final concentration of test organism after it is added to the wells was approximately 5×10^4 CFU/well. Following inoculation of the microdilution trays, the trays were incubated at 35° C. for 16-20 hours and then read. The amount of growth in the wells containing the test compound was compared with the amount of growth in the growth-control wells (no test compound) used in each tray.

[2] = system: Staphylococcus aureus ATCC 29213; test: In vitro antibacterial activity, microdilution broth MIC (NCCLS M7-A4), strain B
Protocol: as §1, §2

[3] = system: Methicillin-resistant Staphylococcus aureus OC 3726 COL; test: In vitro antibacterial activity, microdilution broth MIC (NCCLS M7-A4), strain C
Protocol: as §1, §2

[4] = system: Staphylococcus aureus OC4172; test: In vitro antibacterial activity, microdilution broth MIC (NCCLS M7-A4), strain D
Protocol: as §1, §2

SMILES	MIC (μg/mL) A Strain [1]	MIC (μg/mL) B Strain [2]	MIC (μg/mL) C Strain [3]	MIC (μg/mL) D Strain [4]
COC1C=COC2(C)Oc3c(C)c(O)c4c(O)c(c(C=NN5CCN(Cc6cc(-c7ccc(C)cc7)no6)CC5)c(O)c4c3C2=O)NC(=O)C(C)=CC=CC(C)C(O)C(C)C(O)C(C)C(OC(C)=O)C1C (centres unmarked) [Compound 8]	0.5 µg/mL (≈ 0.51 µM)	0.5 µg/mL (≈ 0.51 µM)	0.5 µg/mL (≈ 0.51 µM)	0.5 µg/mL (≈ 0.51 µM)
COC1C=COC2(C)Oc3c(C)c(O)c4c(O)c(c(C=NN5CCN(Cc6cc(-c7ccccc7)no6)CC5)c(O)c4c3C2=O)NC(=O)C(C)=CC=CC(C)C(O)C(C)C(O)C(C)C(OC(C)=O)C1C (centres unmarked) [Compound 1]	0.25 µg/mL (≈ 0.259 µM)	0.12 µg/mL (≈ 0.124 µM)	0.12 µg/mL (≈ 0.124 µM)	0.12 µg/mL (≈ 0.124 µM)
COC1C=COC2(C)Oc3c(C)c(O)c4c(O)c(c(C=NN5CCN(Cc6noc(-c7ccc(Cl)cc7)n6)CC5)c(O)c4c3C2=O)NC(=O)C(C)=CC=CC(C)C(O)C(C)C(O)C(C)C(OC(C)=O)C1C (centres unmarked) [Compound 25]	0.5 µg/mL (≈ 0.499 µM)	0.5 µg/mL (≈ 0.499 µM)	0.25 µg/mL (≈ 0.25 µM)	0.25 µg/mL (≈ 0.25 µM)
COC1C=COC2(C)Oc3c(C)c(O)c4c(O)c(c(C=NN5CCN(Cc6cc(-c7ccc(Cl)cc7Cl)no6)CC5)c(O)c4c3C2=O)NC(=O)C(C)=CC=CC(C)C(O)C(C)C(O)C(C)C(OC(C)=O)C1C (centres unmarked) [Compound 4]	1 µg/mL (≈ 0.966 µM)	1 µg/mL (≈ 0.966 µM)	0.5 µg/mL (≈ 0.483 µM)	1 µg/mL (≈ 0.966 µM)
COC1C=COC2(C)Oc3c(C)c(O)c4c(O)c(c(C=NN5CCN(Cc6cc(-c7cccc(Cl)c7)no6)CC5)c(O)c4c3C2=O)NC(=O)C(C)=CC=CC(C)C(O)C(C)C(O)C(C)C(OC(C)=O)C1C (centres unmarked) [Compound 3]	0.5 µg/mL (≈ 0.5 µM)	0.5 µg/mL (≈ 0.5 µM)	0.5 µg/mL (≈ 0.5 µM)	0.5 µg/mL (≈ 0.5 µM)
COC1C=COC2(C)Oc3c(C)c(O)c4c(O)c(c(C=NN5CCN(Cc6onc(-c7ccc(Cl)cc7)c6C(=O)O)CC5)c(O)c4c3C2=O)NC(=O)C(C)=CC=CC(C)C(O)C(C)C(O)C(C)C(OC(C)=O)C1C (centres unmarked) [Compound 19]	4 µg/mL (≈ 3.83 µM)	1 µg/mL (≈ 0.957 µM)	0.5 µg/mL (≈ 0.479 µM)	0.5 µg/mL (≈ 0.479 µM)
COC1C=COC2(C)Oc3c(C)c(O)c4c(O)c(c(C=NN5CCN(Cc6ccc(-c7ccc(Cl)cc7)s6)CC5)c(O)c4c3C2=O)NC(=O)C(C)=CC=CC(C)C(O)C(C)C(O)C(C)C(OC(C)=O)C1C (centres unmarked) [Compound 21]	2 µg/mL (≈ 1.97 µM)	2 µg/mL (≈ 1.97 µM)	2 µg/mL (≈ 1.97 µM)	2 µg/mL (≈ 1.97 µM)
COC1C=COC2(C)Oc3c(C)c(O)c4c(O)c(c(C=NN5CCN(Cc6cc(-c7ccc(F)c(F)c7)no6)CC5)c(O)c4c3C2=O)NC(=O)C(C)=CC=CC(C)C(O)C(C)C(O)C(C)C(OC(C)=O)C1C (centres unmarked) [Compound 6]	0.5 µg/mL (≈ 0.499 µM)	0.5 µg/mL (≈ 0.499 µM)	0.25 µg/mL (≈ 0.249 µM)	0.25 µg/mL (≈ 0.249 µM)
